Results on 22 compounds are retold here after PubChem BioAssay (NCI).

Molecules are shown by their SMILES.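 Values below derive from 48-hour exposures of cells grown in 96-well plates, with endpoints linearly interpolated between the two concentrations bracketing the appropriate inhibition level. GI50 = concentration required for 50% inhibition of growth. TGI is the concentration that stops growth completely.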

Among the test systems are NCI/ADR-RES ovarian; UACC-62 melanoma; SK-MEL-5 melanoma; MDA-MB-231 breast; UACC-257 melanoma; SW-620 colon; OVCAR-8 ovarian; T-47D breast; OVCAR-4 ovarian; HOP-92 NSCLC.
Holding throughout (test): DTP human tumour cell line panel, 48 h

On to `COc1ccc([N+](=O)[O-])cc1[I+]c1cc([N+](=O)[O-])ccc1OC`, for which the TGI in the test with NCI/ADR-RES ovarian is greater than 100 µM; in the test with UACC-62 melanoma it was 94.8 µM; in the test with SK-MEL-5 melanoma, 24.9 µM; in the test on MDA-MB-231 breast, greater than 100 µM; in the test on UACC-257 melanoma it was greater than 100 µM; with SW-620 colon it was greater than 100 µM. In addition, the TGI with OVCAR-8 ovarian and in the test with T-47D breast was greater than 100 µM throughout.

Consider `O=C(Nc1ccc(-n2cc(-c3ccncc3)c(-c3ccc(O)c(Cl)c3)n2)cc1)c1ccc(Cl)c(Cl)c1`, for which the GI50 in the test with NCI/ADR-RES ovarian was 2.02 µM; in the test with UACC-62 melanoma it was 2.48 µM; in the test with OVCAR-4 ovarian, 2.71 µM; in the test on SK-MEL-5 melanoma, 1 µM; in the test with MDA-MB-231 breast, 0.51 µM; in the test with HOP-92 NSCLC it was 0.819 µM. For the same compound, the GI50 in the test with UACC-257 melanoma was greater than 32.5 µM; in the test with SW-620 colon, 2.08 µM; with OVCAR-8 ovarian it was 1.74 µM; in the test on T-47D breast, 2.37 µM. The TGI is greater than 32.5 µM with NCI/ADR-RES ovarian; greater than 32.5 µM with UACC-62 melanoma; greater than 32.5 µM in the test on OVCAR-4 ovarian; greater than 32.5 µM with SK-MEL-5 melanoma; 1.11 µM in the test with MDA-MB-231 breast; 20.5 µM with HOP-92 NSCLC. Further, the TGI with UACC-257 melanoma, in the test on SW-620 colon, in the test on OVCAR-8 ovarian and in the test on T-47D breast was greater than 32.5 µM in each case.

Take `CCCCC[C@H]1CC=CC(=O)O1`: the TGI with NCI/ADR-RES ovarian amounted to 27.1 µM; in the test with UACC-62 melanoma it was 23 µM; with OVCAR-4 ovarian, 27.3 µM; with SK-MEL-5 melanoma, 21.3 µM; with MDA-MB-231 breast, 23 µM; in the test with HOP-92 NSCLC, 53.3 µM. In addition, the TGI in the test on UACC-257 melanoma is 32.6 µM; in the test on SW-620 colon, 18.7 µM; in the test with OVCAR-8 ovarian, 24.8 µM; in the test with T-47D breast, 30.9 µM.

`COc1cccc(/C=N/[N-]C(N)=O)c1[O-].[OH3+].[Zn+2]`: the TGI in the test with UACC-62 melanoma, in the test with OVCAR-4 ovarian, in the test with SK-MEL-5 melanoma, in the test with HOP-92 NSCLC, with UACC-257 melanoma and with SW-620 colon was greater than 100 µM throughout. This compound also had a TGI in the test with OVCAR-8 ovarian greater than 100 µM.

For `NC(=O)OCc1c(O)c2c(c(O)c1COC(N)=O)C(=O)C=CC2=O`, the TGI in the test on UACC-62 melanoma, in the test with OVCAR-4 ovarian, with SK-MEL-5 melanoma, with HOP-92 NSCLC, in the test with UACC-257 melanoma and in the test with SW-620 colon was greater than 100 µM throughout. Besides, the TGI in the test with OVCAR-8 ovarian is greater than 100 µM.

Consider `Cc1ccc(CCCC(=O)O)cc1C`, for which the TGI with NCI/ADR-RES ovarian, in the test with UACC-62 melanoma, in the test with OVCAR-4 ovarian, in the test on SK-MEL-5 melanoma, in the test on MDA-MB-231 breast and in the test on HOP-92 NSCLC was greater than 100 µM each time. In addition, the TGI with UACC-257 melanoma, in the test with SW-620 colon and in the test on OVCAR-8 ovarian was greater than 100 µM in each case.

Take `CSc1nc(NC2OC(CO)C(O)C(O)C2O)c(N)c(=O)n1C` (stereo not given): the TGI in the test with NCI/ADR-RES ovarian, in the test with UACC-62 melanoma, in the test with OVCAR-4 ovarian, with SK-MEL-5 melanoma, in the test with HOP-92 NSCLC and in the test with UACC-257 melanoma was greater than 100 µM throughout. For the same compound, the concentration for total growth inhibition (TGI) in the test on SW-620 colon and in the test on OVCAR-8 ovarian was greater than 100 µM throughout.

As for `O=C1c2ccccc2-c2ccc(N(Cc3ccc(Br)cc3)Cc3ccc(Br)cc3)cc21`, the TGI with NCI/ADR-RES ovarian, in the test with UACC-62 melanoma, in the test on OVCAR-4 ovarian, with SK-MEL-5 melanoma, in the test on MDA-MB-231 breast and in the test on HOP-92 NSCLC was greater than 100 µM each time. Further, the TGI in the test with UACC-257 melanoma, in the test on SW-620 colon, with OVCAR-8 ovarian and in the test with T-47D breast was greater than 100 µM throughout.

As for `CCCCCCCCCCCCCCCc1ccc(C(=O)C[n+]2ccccc2)cc1`, the GI50 in the test with SK-MEL-5 melanoma was 1.44 µM; in the test with MDA-MB-231 breast, 0.886 µM; in the test with HOP-92 NSCLC, 0.295 µM; in the test on UACC-257 melanoma it was 1.7 µM; in the test on SW-620 colon, 0.394 µM; in the test on OVCAR-8 ovarian, 1.22 µM. Moreover, in the test with T-47D breast, the GI50 is 1.38 µM. Further, the concentration for total growth inhibition (TGI) in the test with SK-MEL-5 melanoma amounted to 3.93 µM; in the test on MDA-MB-231 breast, 2.23 µM; with HOP-92 NSCLC, 3.93 µM; with UACC-257 melanoma, 3.51 µM; in the test with SW-620 colon, 1.54 µM; in the test with OVCAR-8 ovarian it was 2.55 µM. The compound also returned a TGI with T-47D breast of 3.77 µM.

On to `CCOC(=O)c1c(C)n(-c2ccc(C)cc2)c2c1cc(O)c1[nH]c3c(c12)CCCC3`, for which the TGI with NCI/ADR-RES ovarian was greater than 100 µM; in the test with UACC-62 melanoma, 46.7 µM; in the test on OVCAR-4 ovarian, 51.3 µM; in the test with SK-MEL-5 melanoma, 24.3 µM; in the test with MDA-MB-231 breast it was 81.7 µM; in the test with HOP-92 NSCLC, 23.6 µM. Also, the TGI in the test with UACC-257 melanoma was 56.7 µM; in the test on SW-620 colon, 39 µM; with OVCAR-8 ovarian, 82.3 µM; in the test with T-47D breast it was greater than 100 µM.

In the case of `O=C(c1no[n+]([O-])c1C(=O)c1csc2ccccc12)c1csc2ccccc12`, the TGI came out at 56.3 µM in the test with NCI/ADR-RES ovarian; 25.7 µM in the test on UACC-62 melanoma; 7.3 µM in the test with OVCAR-4 ovarian; 26.1 µM in the test on SK-MEL-5 melanoma; 18.4 µM in the test with MDA-MB-231 breast; 5.01 µM with HOP-92 NSCLC. The TGI with UACC-257 melanoma turned out to be 16.3 µM; in the test on SW-620 colon it was 5.85 µM; in the test with OVCAR-8 ovarian it was 11.4 µM; with T-47D breast, 13.7 µM.

`COc1ccc(C2C(Cl)C(=O)N2NC(=O)c2ccc(NC(C)=O)cc2)cc1OC` (stereo not given): the total growth inhibition concentration (TGI) in the test on UACC-62 melanoma, with SK-MEL-5 melanoma, in the test with HOP-92 NSCLC, with UACC-257 melanoma, in the test with SW-620 colon and in the test on OVCAR-8 ovarian was greater than 100 µM throughout.

Take `CNC1=C(C)C(=O)C2=C(C1=O)C(COC(N)=O)C1(OC)C3NC3CN21` (stereo not given): the TGI with UACC-62 melanoma is 1.55 µM; in the test with OVCAR-4 ovarian it was 25.7 µM; in the test with SK-MEL-5 melanoma, 0.268 µM; with UACC-257 melanoma it was 3.64 µM; with SW-620 colon it was greater than 100 µM; with OVCAR-8 ovarian, 11 µM. Moreover, in the test on T-47D breast, the TGI stood at 18.1 µM.

On to `N=C(N)c1ccc(-c2ccc(-c3ccccc3)o2)cc1`, for which the GI50 with NCI/ADR-RES ovarian was 2.2 µM; in the test with OVCAR-4 ovarian it was 1.96 µM; in the test on SK-MEL-5 melanoma, 1.94 µM; with MDA-MB-231 breast, 1.93 µM; in the test with HOP-92 NSCLC, 1.95 µM; in the test with UACC-257 melanoma, 2.21 µM. For the same compound, the GI50 with SW-620 colon was 1.72 µM. For the same compound, the TGI in the test on NCI/ADR-RES ovarian amounted to 5.85 µM; in the test on OVCAR-4 ovarian it was 4.9 µM; in the test on SK-MEL-5 melanoma, 3.72 µM; in the test on MDA-MB-231 breast, 4.08 µM; with HOP-92 NSCLC, 4.14 µM; in the test with UACC-257 melanoma, 4.56 µM. In the test on SW-620 colon, this compound yielded a TGI of 3.32 µM.

As to `NC(N)=NCCCS(=O)(=O)Nc1ccc(Nc2c3ccccc3nc3cc([N+](=O)[O-])ccc23)cc1`, the TGI in the test on NCI/ADR-RES ovarian turned out to be 58.8 µM; in the test with UACC-62 melanoma it was 51.7 µM; with OVCAR-4 ovarian, 48.9 µM; with SK-MEL-5 melanoma it was 45.3 µM; in the test on MDA-MB-231 breast it was 66.5 µM; in the test with HOP-92 NSCLC it was 28.5 µM. Moreover, the TGI is 68.1 µM with UACC-257 melanoma, 58 µM in the test on SW-620 colon, greater than 92.9 µM in the test on OVCAR-8 ovarian and 11.4 µM in the test on T-47D breast.

For the compound `CC(C)=CCC/C(C)=C/CC/C(C)=C/C(O)c1ccccc1` (stereo not given), the concentration for total growth inhibition (TGI) was 30.9 µM with UACC-62 melanoma; greater than 10 µM in the test on OVCAR-4 ovarian; 30.2 µM with SK-MEL-5 melanoma; 35.6 µM in the test on UACC-257 melanoma; 38.8 µM with SW-620 colon; 40.6 µM in the test on OVCAR-8 ovarian.

In the case of `CC(C)c1cccc(C(C)C)c1NC(=S)Nc1ccccc1`, the TGI with UACC-62 melanoma, with OVCAR-4 ovarian, in the test on SK-MEL-5 melanoma, in the test with HOP-92 NSCLC, in the test with UACC-257 melanoma and in the test with SW-620 colon was greater than 100 µM each time. The compound further gave a TGI in the test with OVCAR-8 ovarian greater than 100 µM.

Consider `CC(=O)Nc1ccc2c(c1)C(=Nc1ccc(C(=O)O)cc1)c1ccccc1-2`, for which the TGI in the test on NCI/ADR-RES ovarian, in the test with UACC-62 melanoma, in the test with OVCAR-4 ovarian, in the test on SK-MEL-5 melanoma, with HOP-92 NSCLC and with UACC-257 melanoma was greater than 100 µM in each case. In addition, the TGI in the test on SW-620 colon, in the test with OVCAR-8 ovarian and in the test with T-47D breast was greater than 100 µM each time.

Consider `COC(=O)c1c(OC(C)=O)ccc2c1c1c(n2Cc2ccccc2)C(=O)c2ccccc2C1=O`, for which the TGI with NCI/ADR-RES ovarian was 61.6 µM; in the test with UACC-62 melanoma, 48.8 µM; with OVCAR-4 ovarian, 74.2 µM; with SK-MEL-5 melanoma it was 28.1 µM; with MDA-MB-231 breast it was 36.8 µM; in the test on HOP-92 NSCLC, 39.8 µM. Moreover, the concentration for total growth inhibition (TGI) with UACC-257 melanoma came out at 26.8 µM; in the test with OVCAR-8 ovarian, 89.1 µM; in the test on T-47D breast, 56.3 µM.

As to `CCN(CC)CCSc1nc2c([N+](=O)[O-])cccc2[nH]1`, the TGI in the test on UACC-62 melanoma, with OVCAR-4 ovarian, in the test with SK-MEL-5 melanoma, with HOP-92 NSCLC, with UACC-257 melanoma and with SW-620 colon was greater than 100 µM each time. This compound displayed a TGI with OVCAR-8 ovarian greater than 100 µM.

For `N=C1SCCS1`, the concentration for total growth inhibition (TGI) in the test on UACC-62 melanoma, in the test on OVCAR-4 ovarian, in the test with SK-MEL-5 melanoma, in the test with HOP-92 NSCLC, with UACC-257 melanoma and in the test with SW-620 colon was greater than 100 µM each time. Further, the TGI in the test with OVCAR-8 ovarian is greater than 100 µM.

In the case of `Nc1cccc2cc(S(=O)(=O)Nc3ccc(C(=O)O)cc3)ccc12`, the TGI in the test on NCI/ADR-RES ovarian, in the test with UACC-62 melanoma, in the test with OVCAR-4 ovarian, with SK-MEL-5 melanoma, in the test with MDA-MB-231 breast and with HOP-92 NSCLC was greater than 100 µM each time. The total growth inhibition concentration (TGI) in the test with UACC-257 melanoma, in the test on SW-620 colon, in the test with OVCAR-8 ovarian and with T-47D breast was greater than 100 µM throughout.
